Laboratory results reported in the NIST ThermoML archive (doi:10.1021/je500067f).

Settings: 101.33 kPa, Liquid; for viscosity: Capillary tube (Ostwald / Ubbelohde) method; for mass density: Pycnometric method

C[S+](C)[O-] [dimethyl sulfoxide]
Settings | mass density [kg/m3] | viscosity [mPa·s]
298.15 K | 1095.2 | 2
303.15 K | 1090.6 | 1.8
308.15 K | 1085.9 | 1.61
313.15 K | 1081.3 | 1.44
318.15 K | 1075.3 | 1.33
